Source: publication PMC4774911, “Biochemical Screening of Five Protein Kinases from Plasmodium falciparum against 14,000 Cell-Active Compounds” (PLoS ONE, 2016)
Read-outs that look alike come from different tables or passages of the source.

Columns and labels:
P. falciparum 3D7 cells = settings: Nature 2010, cited from earlier work
DD2 [1] = system: DD2; parameters: method as in F.J. Gamo et al., Nature 2010; settings: P. falciparum Dd2; downloaded from ChEMBL ref F.J. Gamo et al., Nature 2010; cited from earlier work
HepG2 cells = settings: Nature 2010, cited from earlier work
[2] = biological target: T1, Plasmodium falciparum calcium-dependent protein kinase 1 (CDPK1) (Plasmodium falciparum, UniProt P62344); assay: CDPK1 Kinase-Glo ATP-consumption screen and dose-response; assay type: biochemical; settings: hits below 1 uM; read-out: CDPK1 IC50
T1 construct: 6-Histidine (N); made in house
Procedure: Biochemical assays were performed in white 384-well plates (Nunc). Liquid transfers were done manually with 8-channel pipets. Compounds were initially tested in a single-point screen (final concentration 1 μM). […] The catalytic activity of each kinase was considered proportional to ATP consumed, as determined from measurements of residual [ATP] with the luciferase-based reagent Kinase-Glo (Promega) following incubation. Luminescence (proportional to residual [ATP]) was measured on the plate readers FLx800 (BioTek Instruments, Winooski, VT, USA) and MicroBeta^2 (PerkinElmer, Waltham, MA, USA). Incubation times were chosen to ensure near-complete ATP depletion in the absence of inhibition, thus maximizing the difference in signal between inhibited and uninhibited wells.
40 μM Syntide-2 was used as a substrate; BKI-1 [14] was used as a control inhibitor, while reaction mixtures lacking Syntide-2 were included as an additional negative control. Incubation time was 90 minutes. Reactions were terminated by adding excess EGTA (5 mM), which sequesters Ca^2+ and halts calcium-dependent kinase activity.

3D7 PFLDH [3] = system: 3D7 PFLDH; parameters: method as in F.J. Gamo et al., Nature 2010; settings: downloaded from ChEMBL ref F.J. Gamo et al., Nature 2010; cited from earlier work
DD2 [4] = system: DD2; parameters: method as in F.J. Gamo et al., Nature 2010; settings: downloaded from ChEMBL, ref F.J. Gamo et al., Nature 2010; cited from earlier work
3D7 PFLDH [5] = system: 3D7 PFLDH; parameters: method as in F.J. Gamo et al., Nature 2010; concentration or dose not given beside the values; settings: downloaded from ChEMBL, ref F.J. Gamo et al., Nature 2010; cited from earlier work
[6] = P. falciparum 3D7, downloaded from ChEMBL ref F.J. Gamo et al.
[7] = HepG2 cells, downloaded from ChEMBL ref F.J. Gamo et al.
[8] = 3D7, downloaded from ChEMBL, ref F.J. Gamo et al.
[9] = HepG2, downloaded from ChEMBL, ref F.J. Gamo et al.

T1 sequence (P62344 whole entry): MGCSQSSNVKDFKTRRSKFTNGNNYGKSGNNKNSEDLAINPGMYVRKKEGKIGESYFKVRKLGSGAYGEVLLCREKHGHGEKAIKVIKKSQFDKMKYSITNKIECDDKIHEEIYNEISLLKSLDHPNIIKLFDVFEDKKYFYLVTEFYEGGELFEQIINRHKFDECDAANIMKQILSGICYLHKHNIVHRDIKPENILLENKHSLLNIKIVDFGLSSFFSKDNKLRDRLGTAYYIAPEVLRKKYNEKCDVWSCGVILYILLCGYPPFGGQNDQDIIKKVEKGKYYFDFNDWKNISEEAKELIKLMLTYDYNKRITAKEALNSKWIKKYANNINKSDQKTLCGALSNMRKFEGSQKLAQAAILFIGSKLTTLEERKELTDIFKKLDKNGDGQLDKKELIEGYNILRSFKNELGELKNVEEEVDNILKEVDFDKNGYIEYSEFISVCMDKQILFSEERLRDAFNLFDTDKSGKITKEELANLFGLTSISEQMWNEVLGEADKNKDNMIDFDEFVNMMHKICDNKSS

| SMILES | PCT_IHB_3D7 (P. falciparum 3D7 cells; [6]) | pXC50_3D7 (P. falciparum 3D7 cells; [6]) | PCT_INHB_DD2 (DD2 [1]) | PCT_INHIB_HEPG2 (HepG2 cells; [7]) | IC50 [2] [nM] | PCT_INHIB_3D7_PFLDH (3D7 PFLDH [3]) | PCT_IHB_3D7 (P. falciparum 3D7 cells; [8]) [%] | pXC50_3D7 (P. falciparum 3D7 cells; [8]) | PCT_INHB_DD2 (DD2 [4]) [%] | PCT_INHIB_3D7_PFLDH (3D7 PFLDH [5]) [%] | PCT_INHIB_HEPG2 (HepG2 cells; [9]) [%] |
| --- | --- | --- | --- | --- | --- | --- | --- | --- | --- | --- | --- |
| COc1ccc2nc(-c3cc(-c4ccc(NC(C)=O)cc4)cnc3N)[nH]c2c1 [TCMDC-135365] | 93 | 5.906 | 73 | 55 | 501 | 0 | – | – | – | – | – |
| CCn1c(-c2nc(-c3ccnc(N4CCN(C)CC4)c3)cnc2N)nc2cc(S(C)(=O)=O)ccc21 [TCMDC-134155] | 100 | 6.089 | 76 | 44 | 654 | 0 | – | – | – | – | – |
| Cc1ccc(Nc2nc3cc(N(C)c4ccnc(Nc5cccc(CCS(C)(=O)=O)c5)n4)ccc3n2C)cc1.O=C(O)C(F)(F)F [TCMDC-138853] | – | – | – | – | 160 | – | 99 | 6.469 | 73 | 4 | 78 |
| NC(=O)c1ccccc1Nc1nc(Nc2cc[nH]n2)ncc1Cl [TCMDC-134169] | – | – | – | – | 186 | – | 96 | 6.019 | 93 | 0 | 67 |
| CN1CCN(c2ccc(Nc3ncc(Cl)c(Nc4cccnc4C(N)=O)n3)cc2)CC1.Cl [TCMDC-134164] | – | – | – | – | 12 | – | 95 | 6.816 | 97 | 0 | 99 |
| Cn1c(Nc2cc(C(C)(C)C)on2)nc2cc(Nc3ccnc(Nc4cccc(CS(C)(=O)=O)c4)n3)ccc21 [TCMDC-141893] | – | – | – | – | 114 | – | 99 | 6.243 | 94 | 0 | 63 |
| Cl.N#CCc1ccc(Nc2nccc(Nc3ccc(Oc4ccccc4)cc3)n2)cc1 [TCMDC-138577] | – | – | – | – | 798 | – | 98 | 6.094 | 47 | 6 | 0 |
| O=C(NCCCN1CCOCC1)c1cccc(Nc2nccc(Nc3ccc(Oc4ccccc4)cc3)n2)c1 [TCMDC-138604] | – | – | – | – | 180 | – | 98 | 6.116 | 22 | 0 | 34 |
| O=C(NCCCN1CCCCC1)c1cccc(Nc2nccc(Nc3ccc(Oc4ccccc4)cc3)n2)c1 [TCMDC-138605] | – | – | – | – | 243 | – | 96 | 6.086 | 12 | 2 | 47 |
| O=C(NCCN1CCCCC1)c1cccc(Nc2nccc(Nc3ccc(Oc4ccccc4)cc3)n2)c1 [TCMDC-138603] | – | – | – | – | 250 | – | 99 | 6.563 | 86 | 0 | 50 |
| CNC(=O)c1ccccc1Nc1nc(Nc2ccc(C(=O)O)cc2)ncc1Cl.Cl [TCMDC-133803] | – | – | – | – | 246 | – | 92 | 6.022 | 92 | 0 | 60 |
| O=C(NCCCN1CCCCC1)c1ccc(Nc2nccc(Nc3ccc(Oc4ccccc4)cc3)n2)cc1 [TCMDC-138609] | – | – | – | – | 94 | – | 100 | 6.204 | 61 | 0 | 30 |
| O=C(NCCN1CCC(c2ccncc2)CC1)c1ccc(Nc2nccc(Nc3ccc(Oc4ccccc4)cc3)n2)cc1 [TCMDC-138610] | – | – | – | – | 135 | – | 100 | 6.14 | 90 | 1 | 17 |
| O=C(NCCN1CCC(c2ccncc2)CC1)c1cccc(Nc2nccc(Nc3ccc(Oc4ccccc4)cc3)n2)c1 [TCMDC-138607] | – | – | – | – | 220 | – | 100 | 6.773 | 91 | 0 | 60 |
